Measured values as given in patent US20100076015A1, “Aminopyridine Derivatives” (VANTIA LIMITED, priority 2008, published 2010).

Target: T1, Human KLK1 (Homo sapiens, UniProt P06870)
T1 construct: purchased Callbiochem (Calbiochem)
Test: Determination of the IC50 for KLK1 (fluorogenic substrate H-DVal-Leu-Arg-AFC)
Type: biochemical
Conditions: 37° C.
Summary of the method: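 Human KLK1 incubated at 37° C with fluorogenic substrate H-DVal-Leu-Arg-AFC and a range of test compound concentrations. Residual activity taken as initial reaction rate from absorbance change at 410 nm; IC50 derived from these rates.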

T1 sequence (P06870 25-262): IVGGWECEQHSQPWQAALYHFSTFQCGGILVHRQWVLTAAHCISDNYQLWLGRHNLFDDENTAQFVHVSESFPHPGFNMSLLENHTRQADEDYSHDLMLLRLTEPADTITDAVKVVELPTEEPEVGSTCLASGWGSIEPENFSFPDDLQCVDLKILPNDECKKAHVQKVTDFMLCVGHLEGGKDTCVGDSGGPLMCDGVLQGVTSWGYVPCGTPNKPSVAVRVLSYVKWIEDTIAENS

| IC50 | Structure (SMILES) |
| --- | --- |
| 48.1 nM | Nc1ccc(CNC(=O)[C@H](Cc2cc(F)cc(F)c2)NC(=O)c2cc3ccccc3[nH]2)cn1 [Example 323, 1H-Indole-2-carboxylic acid [(S)-1-[(6-amino-pyridin-3-ylmethyl)-carbamoyl]-2-(3,5-difluoro-phenyl)-ethyl]-amide] |
| 68.4 nM | Nc1ccc(CNC(=O)[C@H](Cc2cc(F)c(F)cc2F)NC(=O)c2cc3ccccc3[nH]2)cn1 [Example 324, 1H-Indole-2-carboxylic acid [(S)-1-[(6-amino-pyridin-3-ylmethyl)-carbamoyl]-2-(2,4,5-trifluoro-phenyl)-ethyl]-amide] |
| 21.3 nM | Nc1ccc(CNC(=O)[C@H](Cc2ccc(F)c(F)c2)NC(=O)c2cc3ccccc3[nH]2)cn1 [Example 325, 1H-Indole-2-carboxylic acid [(S)-1-[(6-amino-pyridin-3-ylmethyl)-carbamoyl]-2-(3,4-difluoro-phenyl)-ethyl]-amide] |
| 25.4 nM | Nc1ccc(CNC(=O)[C@H](Cc2ccc(F)c(F)c2)NC(=O)c2cc3cc(F)ccc3[nH]2)cn1 [Example 326, 5-Fluoro-1H-indole-2-carboxylic acid [(S)-1-[(6-amino-pyridin-3-ylmethyl)-carbamoyl]-2-(3,4-difluoro-phenyl)-ethyl]-amide] |
| 17.8 nM | COc1ccc2[nH]c(C(=O)N[C@@H](Cc3ccc(F)c(F)c3)C(=O)NCc3ccc(N)nc3)cc2c1 [Example 327, 5-Methoxy-1H-indole-2-carboxylic acid [(S)-1-[(6-amino-pyridin-3-ylmethyl)-carbamoyl]-2-(3,4-difluoro-phenyl)-ethyl]-amide] |
| 179 nM | Nc1ccc(CNC(=O)[C@H](Cc2ccc(F)c(F)c2)NC(=O)c2nc3ccccc3[nH]2)cn1 [Example 328, 1H-Benzoimidazole-2-carboxylic acid [(S)-1-[(6-amino-pyridin-3-ylmethyl)-carbamoyl]-2-(3,4-difluoro-phenyl)-ethyl]-amide] |
| 299 nM | Nc1ccc(CNC(=O)[C@H](Cc2c(F)c(F)c(F)c(F)c2F)NC(=O)c2cc3ccccc3[nH]2)cn1 [Example 329, 1H-Indole-2-carboxylic acid {(S)-1-[(6-amino-pyridin-3-ylmethyl)-carbamoyl]-2-pentafluorophenyl-ethyl}-amide] |
| 23.6 nM | Nc1ccc(CNC(=O)[C@H](Cc2ccc(F)cc2)NC(=O)c2cc3ccccc3[nH]2)cn1 [Example 330, 1H-Indole-2-carboxylic acid [(S)-1-[(6-amino-pyridin-3-ylmethyl)-carbamoyl]-2-(4-fluoro-phenyl)-ethyl]-amide] |
| 32 nM | Nc1ccc(CNC(=O)[C@H](Cc2ccc(F)cc2)NC(=O)c2cc3cc(F)ccc3[nH]2)cn1 [Example 331, 5-Fluoro-1H-indole-2-carboxylic acid [(S)-1-[(6-amino-pyridin-3-ylmethyl)-carbamoyl]-2-(4-fluoro-phenyl)-ethyl]-amide] |
| 21.5 nM | COc1ccc2[nH]c(C(=O)N[C@@H](Cc3ccc(F)cc3)C(=O)NCc3ccc(N)nc3)cc2c1 [Example 332, 5-Methoxy-1H-indole-2-carboxylic acid [(S)-1-[(6-amino-pyridin-3-ylmethyl)-carbamoyl]-2-(4-fluoro-phenyl)-ethyl]-amide] |
| 184 nM | Nc1ccc(CNC(=O)[C@H](Cc2ccc(F)cc2)NC(=O)c2nc3ccccc3[nH]2)cn1 [Example 333, 1H-Benzoimidazole-2-carboxylic acid [(S)-1-[(6-amino-pyridin-3-ylmethyl)-carbamoyl]-2-(4-fluoro-phenyl)-ethyl]-amide] |
| 235 nM | COc1ccc(C[C@H](NC(=O)c2cc3ccccc3[nH]2)C(=O)NCc2ccc(N)nc2)cc1 [Example 334, 1H-Indole-2-carboxylic acid [(S)-1-[(6-amino-pyridin-3-ylmethyl)-carbamoyl]-2-(4-methoxy-phenyl)-ethyl]-amide] |
| 15.8 nM | Nc1ccc(CNC(=O)[C@H](Cc2csc3ccccc23)NC(=O)c2cc3ccccc3[nH]2)cn1 [Example 335, 1H-Indole-2-carboxylic acid {(S)-1-[(6-amino-pyridin-3-ylmethyl)-carbamoyl]-2-benzo[b]thiophen-3-yl-ethyl}-amide] |
| 881 nM | Nc1ccc(CNC(=O)[C@H](CC2CCCCC2)NC(=O)c2cc3ccccc3[nH]2)cn1 [Example 338, 1H-Indole-2-carboxylic acid {(S)-1-[(6-amino-pyridin-3-ylmethyl)-carbamoyl]-2-cyclohexyl-ethyl}-amide] |
| 39.8 nM | CCC(C)[C@H](NC)C(=O)N[C@@H](CC1CCCCC1)C(=O)NCc1ccc(N)nc1 (stereo partly drawn) [Example 339, (S)-3-Methyl-2-methylamino-pentanoic acid {(S)-1-[(6-amino-pyridin-3-ylmethyl)-carbamoyl]-2-cyclohexyl-ethyl}-amide] |
| 2.2 nM | CN[C@@H](C(=O)N[C@@H](Cc1cccc(Cl)c1)C(=O)NCc1ccc(N)nc1)C(C)C [Example 341, (R)—N-[(S)-1-[(6-Amino-pyridin-3-ylmethyl)-carbamoyl]-2-(3-chloro-phenyl)-ethyl]-3-methyl-2-methylamino-butyramide] |

| IC50 | Structure (SMILES) |
| --- | --- |
| 2.7 nM | CN[C@H](Cc1ccccc1)C(=O)N[C@@H](Cc1cccc(Cl)c1)C(=O)NCc1ccc(N)nc1 [Example 342, (R)—N-[(S)-1-[(6-Amino-pyridin-3-ylmethyl)-carbamoyl]-2-(3-chloro-phenyl)-ethyl]-2-methylamino-3-phenyl-propionamide] |
| 91 nM | C[C@@H](C(=O)N[C@@H](Cc1ccc(F)c(F)c1)C(=O)NCc1ccc(N)nc1)N(C)CC1CCCCC1 [Example 343, (S)—N-[(S)-1-[(6-Amino-pyridin-3-ylmethyl)-carbamoyl]-2-(3,4-difluoro-phenyl)-ethyl]-2-(cyclohexylmethyl-methyl-amino)-propionamide] |
| 21.3 nM | C[C@@H](C(=O)N[C@@H](Cc1ccc(F)c(F)c1)C(=O)NCc1ccc(N)nc1)N(C)C [Example 344, (S)—N-[(S)-1-[(6-Amino-pyridin-3-ylmethyl)-carbamoyl]-2-(3,4-difluoro-phenyl)-ethyl]-2-dimethylamino-propionamide] |
| 7.7 nM | CCN(C)[C@@H](C)C(=O)N[C@@H](Cc1ccc(F)c(F)c1)C(=O)NCc1ccc(N)nc1 [Example 345, (S)—N-[(S)-1-[(6-Amino-pyridin-3-ylmethyl)-carbamoyl]-2-(3,4-difluoro-phenyl)-ethyl]-2-(ethyl-methyl-amino)-propionamide] |
| 21.3 nM | CCCN(C)[C@@H](C)C(=O)N[C@@H](Cc1ccc(F)c(F)c1)C(=O)NCc1ccc(N)nc1 [Example 346, (S)—N-[(S)-1-[(6-Amino-pyridin-3-ylmethyl)-carbamoyl]-2-(3,4-difluoro-phenyl)-ethyl]-2-(methyl-propyl-amino)-propionamide] |
| 24.5 nM | CCCCN(C)[C@@H](C)C(=O)N[C@@H](Cc1ccc(F)c(F)c1)C(=O)NCc1ccc(N)nc1 [Example 347, (S)—N-[(S)-1-[(6-Amino-pyridin-3-ylmethyl)-carbamoyl]-2-(3,4-difluoro-phenyl)-ethyl]-2-(butyl-methyl-amino)-propionamide] |
| 11.1 nM | CC(C)[C@@H](C(=O)N[C@@H](Cc1ccc(F)c(F)c1)C(=O)NCc1ccc(N)nc1)N(C)C(C)C [Example 348, (S)—N-[(S)-1-[(6-Amino-pyridin-3-ylmethyl)-carbamoyl]-2-(3,4-difluoro-phenyl)-ethyl]-2-(isopropyl-methyl-amino)-3-methyl-butyramide] |
| 7.8 nM | CCC(C)[C@@H](C(=O)N[C@@H](Cc1ccc(F)c(F)c1)C(=O)NCc1ccc(N)nc1)N(C)C(C)C (stereo partly drawn) [Example 349, (S)-2-(Isopropyl-methyl-amino)-3-methyl-pentanoic acid [(S)-1-[(6-amino-pyridin-3-ylmethyl)-carbamoyl]-2-(3,4-difluoro-phenyl)-ethyl]-amide] |
| 28.5 nM | CC(C)N(C(C)C)[C@@H](C)C(=O)N[C@@H](Cc1ccc(F)c(F)c1)C(=O)NCc1ccc(N)nc1 [Example 350, (S)—N-[(S)-1-[(6-Amino-pyridin-3-ylmethyl)-carbamoyl]-2-(3,4-difluoro-phenyl)-ethyl]-2-diisopropylamino-propionamide] |
| 8.8 nM | CN(C)[C@@H](Cc1ccccc1)C(=O)N[C@@H](Cc1ccc(F)c(F)c1)C(=O)NCc1ccc(N)nc1 [Example 351, (S)—N-[(S)-1-[(6-Amino-pyridin-3-ylmethyl)-carbamoyl]-2-(3,4-difluoro-phenyl)-ethyl]-2-dimethylamino-3-phenyl-propionamide] |
| 13.7 nM | CCN(C)[C@@H](Cc1ccccc1)C(=O)N[C@@H](Cc1ccc(F)c(F)c1)C(=O)NCc1ccc(N)nc1 [Example 352, (S)—N-[(S)-1-[(6-Amino-pyridin-3-ylmethyl)-carbamoyl]-2-(3,4-difluoro-phenyl)-ethyl]-2-(ethyl-methyl-amino)-3-phenyl-propionamide] |
| 7.8 nM | CCC(C)[C@@H](C(=O)N[C@@H](Cc1ccc(F)c(F)c1)C(=O)NCc1ccc(N)nc1)N(C)C(C)C (stereo partly drawn) [Example 353, (S)-2-(Isopropyl-methyl-amino)-3-methyl-pentanoic acid [(S)-1-[(6-amino-pyridin-3-ylmethyl)-carbamoyl]-2-(3,4-difluoro-phenyl)-ethyl]-amide] |
| 11.6 nM | CC(C(=O)N[C@@H](Cc1ccc(F)c(F)c1)C(=O)NCc1ccc(N)nc1)N1CCCCC1 (stereo partly drawn) [Example 354, N-[(S)-1-[(6-Amino-pyridin-3-ylmethyl)-carbamoyl]-2-(3,4-difluoro-phenyl)-ethyl]-2-piperidin-1-yl-propionamide] |
| 3.8 nM | C[C@H](C(=O)N[C@@H](Cc1ccc(F)c(F)c1)C(=O)NCc1ccc(N)nc1)N1CCCC1 [Example 356, (R)—N-[(S)-1-[(6-Amino-pyridin-3-ylmethyl)-carbamoyl]-2-(3,4-difluoro-phenyl)-ethyl]-2-pyrrolidin-1-yl-propionamide] |
| 3 nM | C[C@@H](C(=O)N[C@@H](Cc1ccc(F)c(F)c1)C(=O)NCc1ccc(N)nc1)N1CCCC1 [Example 357, (S)—N-[(S)-1-[(6-Amino-pyridin-3-ylmethyl)-carbamoyl]-2-(3,4-difluoro-phenyl)-ethyl]-2-pyrrolidin-1-yl-propionamide] |
